From PubChem BioAssay (NCI)
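48-hour exposure; five concentrations; linearly interpolated endpoints. The concentration for 50% growth inhibition is given as GI50. TGI is the concentration that stops growth completely.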

Key:
Experiment in all cases: inhibition of tumour cell growth, NCI panel, 48 h
[1] = tested on: CCRF-CEM leukemia
[2] = tested on: HCT-15 colon
[3] = tested on: LOX IMVI melanoma
[4] = tested on: SK-MEL-2 melanoma
[5] = tested on: UO-31 renal
[6] = tested on: KM12 colon
[7] = tested on: U251 CNS
[8] = tested on: UACC-62 melanoma
[9] = tested on: RPMI-8226 leukemia
[10] = tested on: SK-OV-3 ovarian

In the case of `O=S(=O)(OI(OI(OS(=O)(=O)C(F)(F)F)c1ccccc1)c1ccccc1)C(F)(F)F`, the TGI [1] is reported as 91.1 µM, the TGI [2] is reported as > 100 µM and the TGI [3] is reported as > 100 µM. The TGI [4] was > 100 µM, the TGI [5] was > 100 µM and the TGI [6] was > 100 µM. For the same molecule, the TGI [7] was > 100 µM, the TGI [8] was > 100 µM and the TGI [9] was > 100 µM.

With `COC(=O)c1c(C)cc(OC)c(C/C=C(\C)CCCc2coc(C=C(C)C)c2)c1OC` the TGI [1] was > 100 µM, the TGI [2] was > 100 µM and the TGI [3] was > 100 µM. For the same molecule, the TGI [4] was > 100 µM, the TGI [5] was > 100 µM and the TGI [6] was > 100 µM. For the same molecule, the TGI [7] was > 100 µM, the TGI [8] was > 100 µM and the TGI [9] was > 100 µM.

Molecule `C[C@H](CCOc1cccc(CC(=O)O)c1)N(Cc1cccc(C(F)(F)F)c1Cl)CC(c1ccccc1)c1ccccc1` has a GI50 [1] of 3.69 µM, a TGI [1] of 20.1 µM and a GI50 [2] of 3.25 µM. For the same molecule, the TGI [2] was 12.3 µM, the GI50 [3] was 5.13 µM and the TGI [3] was 18.5 µM. For the same molecule, the GI50 [4] was 5.84 µM, the TGI [4] was 28.2 µM and the GI50 [5] was 2.36 µM. It also gave a TGI [5] of 14.7 µM, a GI50 [6] of 4.1 µM and a TGI [6] of 15.1 µM. It also gave a GI50 [7] of 4.1 µM, a TGI [7] of 19.3 µM and a GI50 [8] of 2.72 µM. For the same molecule, the TGI [8] was 8.44 µM, the GI50 [9] was 3.48 µM and the TGI [9] was 22.1 µM.

Molecule `COc1nc(=O)n(C2C=CC(=O)O2)cc1F` (configuration not stated) has a GI50 [2] of 2.59 µM, a TGI [2] of 12 µM and a GI50 [3] of 10.9 µM. For the same molecule, the TGI [3] was 22.9 µM, the GI50 [4] was 16.5 µM and the TGI [4] was 54.1 µM. The GI50 [10] was 25.8 µM, the TGI [10] was 62.3 µM and the GI50 [5] was 5.18 µM. The TGI [5] was 18.3 µM, the GI50 [6] was 11.7 µM and the TGI [6] was 23.9 µM. The GI50 [7] was 14.6 µM, the TGI [7] was 29.1 µM and the GI50 [8] was 5.53 µM. For the same molecule, the TGI [8] was 18.7 µM, the GI50 [9] was 3.26 µM and the TGI [9] was 13.4 µM.

In the case of `O=c1[nH]c(O)c(C=Nc2ccc(-c3nc4ccccc4o3)cc2)c(=O)[nH]1`, the GI50 [2] is reported as 32.4 µM, the TGI [2] is reported as > 100 µM and the GI50 [3] is reported as 25.3 µM. The TGI [3] was 58.9 µM, the GI50 [4] was 37.8 µM and the TGI [4] was > 100 µM. The GI50 [10] was > 100 µM, the TGI [10] was > 100 µM and the GI50 [5] was 82.4 µM. The TGI [5] was > 100 µM, the GI50 [6] was 31.3 µM and the TGI [6] was > 100 µM. The GI50 [7] was 23.8 µM, the TGI [7] was 75.9 µM and the GI50 [8] was 35.6 µM. The TGI [8] was > 100 µM, the GI50 [9] was 27.5 µM and the TGI [9] was > 100 µM.

In the case of `CC[C@@H]1NC(C(=O)OC)Cc2c1[nH]c1ccccc21` (some centres not stated), the TGI [1] is reported as > 100 µM, the TGI [2] is reported as > 100 µM and the TGI [3] is reported as > 100 µM. The TGI [4] was > 100 µM, the TGI [10] was > 100 µM and the TGI [5] was > 100 µM. The TGI [6] was > 100 µM, the TGI [7] was > 100 µM and the TGI [8] was > 100 µM.

For `CCOc1ccc(NC(=O)CC2SC(=Nc3ccc(C)cc3C)NC2=O)cc1` (configuration not stated), the TGI [1] was > 100 µM, the TGI [2] was > 100 µM and the TGI [3] was > 100 µM. The TGI [4] was > 100 µM, the TGI [5] was > 100 µM and the TGI [7] was > 100 µM. The TGI [8] was > 100 µM and the TGI [9] was > 100 µM.

With `Cc1cc2c(cc1C)[n+](=O)cc(C(=O)C/C(=N/NC(=S)NN)C(=O)Nc1cccc(C(F)(F)F)c1)n2[O-]` the TGI [1] was > 100 µM, the TGI [2] was > 100 µM and the TGI [4] was > 100 µM. The TGI [10] was > 100 µM, the TGI [5] was > 100 µM and the TGI [6] was > 100 µM. The TGI [7] was > 100 µM, the TGI [8] was > 100 µM and the TGI [9] was > 100 µM.

`Cc1nc2c(N)ncnc2o1` was tested, and the TGI [1] was > 100 µM, the TGI [2] was > 100 µM and the TGI [3] was > 100 µM. For the same molecule, the TGI [4] was > 100 µM, the TGI [10] was > 100 µM and the TGI [5] was > 100 µM. The TGI [6] was > 100 µM, the TGI [7] was > 100 µM and the TGI [8] was > 100 µM.

Molecule `COC(=O)c1c2c(c(C)[n+]([O-])c1C)C(=O)C(NCc1ccc(Br)cc1)=CC2=O` has a GI50 [2] of 1.44 µM, a TGI [2] of 3.91 µM and a GI50 [3] of 1.67 µM. The TGI [3] was 6.7 µM, the GI50 [4] was 1.88 µM and the TGI [4] was 6.12 µM. The GI50 [7] was 2.14 µM, the TGI [7] was 6.01 µM and the GI50 [8] was 1.17 µM. The TGI [8] was 2.69 µM.

In the case of `CCOc1ccc(OCC(=O)O)c2c1CCCC2=O`, the TGI [2] is reported as > 100 µM, the TGI [3] is reported as > 100 µM and the TGI [4] is reported as > 100 µM. For the same molecule, the TGI [10] was > 100 µM, the TGI [5] was > 100 µM and the TGI [6] was > 100 µM. For the same molecule, the TGI [7] was > 100 µM, the TGI [8] was > 100 µM and the TGI [9] was > 100 µM.

For `CCSc1nc(N=Cc2ccccc2O)c2cn[nH]c2n1`, the GI50 [2] was 39.8 µM, the TGI [2] was > 100 µM and the GI50 [3] was 30.1 µM. For the same molecule, the TGI [3] was > 100 µM, the GI50 [4] was 39.9 µM and the TGI [4] was > 100 µM. The GI50 [10] was > 100 µM, the TGI [10] was > 100 µM and the GI50 [5] was 61.6 µM. For the same molecule, the TGI [5] was > 100 µM, the GI50 [6] was 13.2 µM and the TGI [6] was 37 µM. For the same molecule, the GI50 [7] was 44.4 µM, the TGI [7] was > 100 µM and the GI50 [8] was 16.4 µM. The TGI [8] was 54.7 µM, the GI50 [9] was 23.2 µM and the TGI [9] was > 100 µM.

In the case of `O=[N+]([O-])c1cccnc1N=Nc1c(O)[nH]c2ccccc12`, the TGI [2] is reported as 16.5 µM, the TGI [3] is reported as 25.7 µM and the TGI [4] is reported as 53.4 µM. It also gave a TGI [10] of 69.5 µM, a TGI [5] of 81.2 µM and a TGI [6] of 25.6 µM. The TGI [7] was > 100 µM, the TGI [8] was 23 µM and the TGI [9] was 79.2 µM.

For `O=C1C=C(Nc2ccc(Cl)cc2C(=O)c2ccccc2)c2ccccc2C1=O`, the TGI [1] was > 100 µM, the TGI [2] was > 100 µM and the TGI [3] was > 100 µM. The TGI [4] was > 100 µM, the TGI [10] was > 100 µM and the TGI [5] was > 100 µM. The TGI [6] was > 100 µM, the TGI [7] was > 100 µM and the TGI [8] was > 100 µM.
